For experiment [1], the system named is peripheral blood mononuclear cells (PBMC). Nature of the experiment: Peripheral blood mononuclear cell (PBMC) assay. The class given is cell-based. As to conditions: 1 h with compounds, washed, 15 hour incubation, average of one to four donors. The method, then: Selected compounds were tested in an in vitro peripheral blood mononuclear cell (PBMC) assay. […] Serially diluted tested compounds were added to wells in 50 μl of cultivation medium and cell were incubated with compounds for 1 h at 37° C. with 5% CO2. Plates with cells were then spun 500 g for 5 minutes and medium was removed. Cells were washed twice with the cell culture medium by the use of centrifugation and gently resuspended in 100 μl medium without compounds. After 15 hour incubation at 37° C. with 5% CO2, the cell culture medium was collected and the levels of interferon-alpha (INF-α), interferon-gamma (INF-γ) and tumor necrosis factor-alpha (TNF-α) were determined with ProcartaPlex Assays (ThermoFisher, Waltham, USA) and MAGPIX System (Merck KGaA, Darmstadt, Germany). […] Values reported are an average of runs from one to four donors.

The next experiment has as its target WT STING (Homo sapiens, UniProt Q86WV6, H232R). Nature of the experiment: 293T WT STING standard reporter assay. The class given is cell-based. Set-up: host or cells: 293T (ATCC CRL-3216), stably transfected, with 4xISRE firefly luciferase reporter. As to conditions: 293T wtSTING-FL cells, ISRE firefly luciferase; no digitonin; 7 hours with compounds; 8-point curve. The text has this: Two complementary oligonucleotides of the sequence […] […] […] […] […] The oligonucleotides were mixed in equal molar amounts, hybridized, and cleaved by restriction endonucleases HindIII (cat. #. R0104S, NEB, Ipswich, USA) and BglII (cat. #R0144S, NEB, Ipswich, USA). Ultimately, they were ligated into plasmid pGL4.27 (cat. #E6651, Promega, Madison, USA) linearized with the same enzymes. As result the sequence with four ISRE sites was placed upstream of the minimum promoter of firefly luciferase reporter gene.
After 5 minutes incubation at room temperature (RT), 250 μL of the mixture was added dropwise to the cells in one well. Cells were incubated 36 hours at 37° C. with 5% CO2, and then detached with 0.05% Trypsin and 0.22 g/L EDTA (both cat. #L0941, Biowest, Riverside, USA).
Transfected cells were seeded onto poly-D-lysine coated six well plates at density 50,000 cells per 1 cm^2 in DMEM medium with high glucose containing 10% heat inactivated FBS, 30 μg/mL blasticidin (cat. #ant-b1-05, InvivoGen, San Diego, USA), 0.06 mg/ml Penicillin G and 0.1 mg/ml Streptomycin Sulfate (both cat. #. L0018, Biowest, Riverside, USA). The medium was replenished every 3-4 days until visible colonies of cells resistant to blasticidin were formed.
Blasticidin resistant cells stably expressing WT STING were further transfected with […] plasmid following the same procedure as described above. […] Homogeneous culture of stably double transfected cells was prepared by limiting dilution of cells in 96 well plates and wells with cells were selected that originated from a single cell.
The medium was removed next day and three-fold serial dilutions of compounds in 100 μl medium were added to the cells. The plates with cells were incubated for 7 hours at 37° C. with 5% CO2. After 50 μl of the medium was removed, 30 μl of ONE-Glo™ Luciferase Assay System reagent (cat. #E6120, Promega, Madison, USA) was added to each well and luminescence was read on Synergy H1 (Biotek, Winooski, USA).
Background: In a reporter assay the amount or activity of a reporter protein is the signal.

Where [2] appears, read: PBMC, interferon-alpha level, read-out: PBMC EC50 (μM) IFN-α.
Where [3] appears, read: PBMC, interferon-gamma level, read-out: PBMC EC50 (μM) IFN-γ.
Setting [4] is: PBMC, tumor necrosis factor-alpha level, read-out: PBMC EC50 (μM) TNF-α.
Where [5] appears, read: interferon-alpha level, read-out: PBMC EC50 (μM) IFN-α.

A word on the EC50: it is the concentration giving half of the maximal effect. In general, pEC50 refers to the negative decadic logarithm of the EC50, by convention in mol/L.

Structures are written as SMILES. pEC50: −log10 of the molar value. Like-named read-outs stand apart in the source and are kept apart here.

Sequence of WT STING (Q86WV6 whole entry H232R): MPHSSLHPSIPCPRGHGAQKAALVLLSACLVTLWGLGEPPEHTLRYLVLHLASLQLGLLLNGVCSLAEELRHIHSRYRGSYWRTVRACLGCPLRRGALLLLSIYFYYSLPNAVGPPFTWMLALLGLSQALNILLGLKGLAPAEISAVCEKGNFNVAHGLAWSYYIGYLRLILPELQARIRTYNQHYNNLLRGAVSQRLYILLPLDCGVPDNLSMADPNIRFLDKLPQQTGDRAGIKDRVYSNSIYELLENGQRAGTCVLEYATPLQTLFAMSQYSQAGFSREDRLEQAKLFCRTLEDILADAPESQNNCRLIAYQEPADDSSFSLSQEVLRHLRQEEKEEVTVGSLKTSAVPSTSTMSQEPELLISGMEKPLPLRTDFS

`CCC(C)(C)C(=O)OCOP1(=O)OC[C@H]2O[C@@H](n3cnc4c(N)ncnc43)C(F)C2OP(=O)(OCOC(=O)C(C)(C)CC)OC[C@H]2C[C@@H](n3cnc4c(N)ncnc43)C(F)C2O1` (stereo partly drawn) [Compound 144b, {[(1R,6R,8R,9R,10R,15R,17R,18S)-8,17-bis(6-amino-9H-purin-9-yl)-3-{[(2,2-dimethylbutanoy)oxy]methoxy}-9,18-difluoro-3,12-dioxo-2,4,7,11,13-pentaoxa-3λ^5,12λ^5-diphosphatricyclo[13.3.0.0^6,10]octadecan-12-yl]oxy}methyl 2,2-dimethylbutanoate]: the EC50 in experiment [1] (setting [2]) came to 0.04 µM; in experiment [1] (setting [3]), 0.05 µM; in experiment [1] (setting [4]) it was 0.02 µM. For the same compound, on WT STING, the pEC50 is 9.00.

`CC(C)(C)C(=O)OCOP1(=O)OC[C@H]2O[C@@H](n3cnc4c(N)ncnc43)CC2OP(=O)(OCOC(=O)C(C)(C)C)OC[C@H]2C[C@@H](n3cnc4c(N)ncnc43)C(F)C2O1` (stereo partly drawn) [Compound 139a, (((2R,3aS,7aR,9R,10S,10aR,14aR)-2,9-bis(6-amino-9H-purin-9-yl)-10-fluoro-5,12-dioxidodecahydro-2H-cyclopenta[d]furo[3,2-j][1,3,7,9]tetraoxa[2,8]di-phosphacyclododecine-5,12-diyl)bis(oxy))bis(methylene) bis(2,2-dimethylpropanoate)]: the EC50 in experiment [1] (setting [3]) and in experiment [1] (setting [4]) was 0.1 µM in each case. In addition, the pEC50 on WT STING is 8.52.

Take `CC(C)(C)C(=O)OCOP1(=O)OC[C@H]2C[C@@H](n3cnc4c(N)ncnc43)C(F)C2OP(=O)(OCOC(=O)C(C)(C)C)OC[C@H]2C[C@@H](n3cnc4c(N)ncnc43)C(F)C2O1` (single isomer, unassigned) [Compound 138a]: the EC50 in experiment [1] (setting [3]) is 1.5 µM; in experiment [1] (setting [4]) it was 1.9 µM; in experiment [1] (setting [5]), 3.2 µM. The pEC50 at WT STING is 7.15.

Regarding `CC(C)(C)C(=O)OCOP1(=O)OC[C@H]2C[C@@H](n3cnc4c(N)ncnc43)C(F)[C@H]2OP(=O)(OCOC(=O)C(C)(C)C)OC[C@H]2O[C@@H](n3cnc4c(N)ncnc43)[C@@H](F)C2O1` (single isomer, unassigned) [Compound 136d], the EC50 in experiment [1] (setting [2]) was determined as 0.9 µM; in experiment [1] (setting [3]), 2.4 µM; in experiment [1] (setting [4]), 0.8 µM. On WT STING, the pEC50 was 8.00.

For the compound `CC(C)(C)C(=O)OCOP1(=O)OC[C@H]2C[C@@H](n3cnc4c(N)ncnc43)C(F)C2OP(=O)(OCOC(=O)C(C)(C)C)OC[C@H]2C[C@@H](n3cnc4c(N)ncnc43)C(F)C2O1` (single isomer, unassigned) [Compound 138b], the EC50 in experiment [1] (setting [5]) stood at 1 µM; in experiment [1] (interferon-gamma level, read-out: PBMC EC50 (μM) IFN-γ), 2.6 µM; in experiment [1] (tumor necrosis factor-alpha level, read-out: PBMC EC50 (μM) TNF-α) it was 1.3 µM. In addition, the pEC50 at WT STING was 7.70.

For the compound `CCCCCCCC(=O)OCOP1(=O)OC[C@H]2O[C@@H](n3cnc4c(N)ncnc43)[C@H](F)[C@@H]2OP(=O)(OCOC(=O)CCCCCCC)OC[C@H]2C[C@@H](n3cnc4c(N)ncnc43)[C@H](F)[C@@H]2O1` (single isomer, unassigned) [Compound 146a], the EC50 in experiment [1] (setting [2]) turned out to be 0.04 µM. On WT STING, the pEC50 was 10.00.

Regarding `CC(C)OC(=O)OCOP1(=O)OC[C@H]2O[C@@H](n3cnc4c(N)ncnc43)C(F)C2OP(=O)(OCOC(=O)OC(C)C)OC[C@H]2C[C@@H](n3cnc4c(N)ncnc43)C(F)C2O1` (stereo partly drawn) [Compound 143b, {[(1R,6R,8R,9R,10R,15R,17R,18S)-8,17-bis(6-amino-9H-purin-9-yl)-9,18-difluoro-3,12-dioxo-3-({[(propan-2-yloxy)carbonyl]oxy}methoxy)-2,4,7,11,13-pentaoxa-3λ^5,12λ^5-diphosphatricyclo[13.3.0.0^6,10]octadecan-12-yl]oxy}methyl propan-2-yl carbonate], the EC50 in experiment [1] (setting [2]) was determined as 0.3 µM; in experiment [1] (setting [3]), 0.15 µM; in experiment [1] (setting [4]), 0.3 µM. Moreover, on WT STING, the pEC50 is 8.30.
